Results as given in PMC6890677, “Surface Grafted MSI-78A Antimicrobial Peptide has High Potential for Gastric Infection Management” (Scientific Reports, 2019).
Where no end group is shown, it is not given here.

Experiments:
H. pylori J99 [1] = settings: MHB + 10% FBS, 37 °C, microaerophilic, 72 h, 2 replicates in 3 independent experiments
Protocol: (§1) H. pylori human strains J99 and 26695 (provided by Department of Medical Biochemistry and Biophysics, Umeå University, Sweden), NCTC 11637 (ATCC 43504) and mouse-adapted SS1 strain (provided by Unité de Pathogenèse de Helicobacter, Institut Pasteur, France) were grown following the standard procedure. Briefly, H. pylori was cultured in Blood Agar (BA; Oxoid) supplemented with 10% of defibrinated horse blood (Probiologica) and with an antibiotic cocktail (polymyxin B, vancomycin, amphotericin B, trimethoprim; all from Sigma-Aldrich) under microaerophilic conditions (<5% O2; GenBox System, BioMérieux) at 37 °C for 48 h. Afterwards, some colonies were streaked onto fresh BA medium and kept in culture in the same conditions for another 48 h. Subsequently, bacterial inoculum was adjusted to 0.03 optical density at 600 nm (OD600), which corresponds to approximately 1 × 10^7 colony forming units (CFUs)/mL[48]. Initial inoculum was confirmed by inoculation of 10 μL drops of the bacterial suspension onto BA and CFUs were counted after 5 days of incubation in the same above-mentioned settings.
(§2) The MICs of the AMPs (Table 1) against H. pylori strains were determined using the microbroth dilution method in Mueller Hinton Broth (MHB) supplemented with 10% of inactivated Fetal Bovine Serum (FBS; Gibco) and in accordance with the Clinical Laboratory Standards Institute (CLSI) guidelines. Briefly, AMPs were diluted in 0.01% of acetic acid with 0.2% Bovine Serum Albumin (BSA; Sigma) to allow AMP protonation and avoid its aggregation, respectively, following an already established protocol. The selected AMPs concentrations ranged from 2 µg/mL up to 512 µg/mL. Incubation was performed at 37 °C in microaerophilic conditions for 72 h. The MIC was defined as the first AMP concentration that prevented visible (naked eye) bacterial growth. Two replicates of each AMP concentration were performed in three independent experiments.

H. pylori SS1 [2] = settings: H. pylori SS1 (mouse-adapted); MHB + 10% FBS, 37 °C, microaerophilic, 72 h; 2 replicates in 3 independent experiments
Protocol: as §1, §2

H. pylori 26695 [3] = settings: MHB + 10% FBS, 37 °C, microaerophilic, 72 h, 2 replicates in 3 independent experiments
Protocol: as §1, §2

H. pylori NTCC 11637 [4] = settings: MHB + 10% FBS, 37 °C, microaerophilic, 72 h, 2 replicates in 3 independent experiments
Protocol: as §1, §2

H. pylori J99 [5] = settings: viability of the inoculum reduced by ≥99.9%, CFU on BA after 5 days, 2 replicates in 3 independent experiments
Protocol: as §1
(§3) The MBC was defined as the lowest AMP concentration that was able to diminish the viability of the initial bacterial inoculum by ≥99.9%. MBC determination followed the CLSI guidelines[49] but briefly, a 50 µL sample was taken from the first three lowest concentrations where no bacterial growth was observed (concentration corresponding to the MIC), serially diluted in PBS until 10^−6 and then spotted on BA. After 5 days of incubation at 37 °C in microaerophilic environment, the CFUs/mL were calculated. Two replicates of each AMP concentration were performed in three independent experiments.

H. pylori 26695 [6] = settings: viability of the inoculum reduced by ≥99.9%, CFU on BA after 5 days, 2 replicates in 3 independent experiments
Protocol: as §1, §3

H. pylori NTCC 11637 [7] = settings: viability of the inoculum reduced by ≥99.9%, CFU on BA after 5 days, 2 replicates in 3 independent experiments
Protocol: as §1, §3

H. pylori SS1 [8] = type: cell-based, Helicobacter pylori; settings: H. pylori SS1 (mouse-adapted); viability of the inoculum reduced by ≥99.9%; CFU on BA after 5 days; 2 replicates in 3 independent experiments
Protocol: as §1, §3

S. epidermidis = test: MIC of AMP in solution, adhesion control strain

GLLRASSVWGRKYYVDLAGCAKA [Odorranain-HP]
MIC (H. pylori J99 [1]): >512 µg/mL
MIC (H. pylori SS1 [2]): >512 µg/mL
MIC (H. pylori 26695 [3]): >512 µg/mL
MIC (H. pylori NTCC 11637 [4]): >512 µg/mL
MBC (H. pylori J99 [5]): >512 µg/mL
MBC (H. pylori 26695 [6]): >512 µg/mL
MBC (H. pylori NTCC 11637 [7]): >512 µg/mL
MBC (H. pylori SS1 [8]): >512 µg/mL

GIGKFLKKAKKFAKAFVKILKK [MSI-78A]
MIC (H. pylori J99 [1]): 64 µg/mL
MIC (H. pylori SS1 [2]): 128 µg/mL
MIC (H. pylori 26695 [3]): 16 µg/mL
MIC (H. pylori NTCC 11637 [4]): 128 µg/mL
MBC (H. pylori J99 [5]): 128 µg/mL
MBC (H. pylori 26695 [6]): 32 µg/mL
MBC (H. pylori NTCC 11637 [7]): 256 µg/mL
MBC (H. pylori SS1 [8]): 256 µg/mL
MIC (S. epidermidis): 2 µg/mL

GIGKFLKKAKKFGKAFVKILKK [MSI-78]
MIC (H. pylori J99 [1]): 256 µg/mL
MIC (H. pylori SS1 [2]): 128 µg/mL
MIC (H. pylori 26695 [3]): 64 µg/mL
MIC (H. pylori NTCC 11637 [4]): 256 µg/mL
MBC (H. pylori J99 [5]): >512 µg/mL
MBC (H. pylori 26695 [6]): 128 µg/mL
MBC (H. pylori NTCC 11637 [7]): >512 µg/mL
MBC (H. pylori SS1 [8]): >512 µg/mL
